Results reported in patent US8680159B2, “Bradykinin 1 receptor modulating compounds” (Gruenenthal GmbH, priority 2010, dated 2014).

Each compound was assayed against T1, B1R receptor of the rat (CHO K1 cells stably transfected with the B1R gene of the rat) (Rattus norvegicus, UniProt P97583) (assay: Functional study on the bradykinin receptor 1 (B1R), Ca2+ fluorescence (Fluo-4) FLIPR/Novostar assay, rB1R cells). Conditions: CHO-K1, 10 μM, library compounds CC_H, read-out: % Inhibition (r-B1R) at 10 μM.
T1 construct: expressed in transfected cells; host or cells: CHO K1 cells (Chinese hamster ovary), stably transfected
T1 sequence (P97583 1-337): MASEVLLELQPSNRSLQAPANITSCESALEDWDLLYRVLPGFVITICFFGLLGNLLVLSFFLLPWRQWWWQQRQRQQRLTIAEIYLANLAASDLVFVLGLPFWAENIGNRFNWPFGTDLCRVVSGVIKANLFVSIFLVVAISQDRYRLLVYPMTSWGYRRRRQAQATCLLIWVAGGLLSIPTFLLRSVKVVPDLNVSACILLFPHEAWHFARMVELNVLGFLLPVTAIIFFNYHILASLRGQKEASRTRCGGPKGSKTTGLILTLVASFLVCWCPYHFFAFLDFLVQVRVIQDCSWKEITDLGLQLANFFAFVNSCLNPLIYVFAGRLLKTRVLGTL
Format: cell-based
Method in brief: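 Ca2+ influx (Fluo-4, peak fluorescence, λex 488/λem 540 nm) was measured in CHO K1 lines expressing rat or human B1R. After a 10 μM test-compound pre-addition scoring % activation, cells received EC80 agonist: Des-Arg9-bradykinin for rat, Lys-Des-Arg9-bradykinin for human. Antagonism was expressed as % of maximum inhibition, with IC50 from varied concentrations.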

Question: How did the inhibition at 10 µM turn out when CN(C(=O)c1ccc2c(c1)C(NC(=O)c1cccnc1C(F)(F)F)CC2)C1CCN(c2ccnc(C(C)(C)C)n2)CC1 (stereo not shown) [CC_H-606, N-[6-[[1-(2-tert-Butyl-pyrimidin-4-yl)-piperidin-4-yl]-methyl-carbamoyl]-2,3-dihydro-1H-inden-1-yl]-2-(trifluoromethyl)-pyridine-3-carboxylic acid amide] was run?
Answer: 99%

Question: With Cc1ncc2n1C(=O)N(C1CCC(N(C)C(=O)c3ccc4c(c3)C(NC(=O)c3cccnc3C(F)(F)F)CC4)CC1)C2 (stereo not shown) [CC_H-607, N-[6-[Methyl-[4-(5-methyl-3-oxo-1,2-dihydro-imidazo[5,1-e]imidazol-2-yl)-cyclohexyl]-carbamoyl]-2,3-dihydro-1H-inden-1-yl]-2-(trifluoromethyl)-pyridine-3-carboxylic acid amide] as the compound, how does the inhibition at 10 µM read?
Answer: 96%

Question: Which inhibition at 10 µM does the source give for CN(C)c1nccc(N2CCC(N(C)C(=O)c3ccc4c(c3)C(NC(=O)c3cccnc3C(F)(F)F)CC4)CC2)n1 (stereo not shown) [CC_H-608, N-[6-[[1-(2-Dimethylamino-pyrimidin-4-yl)-piperidin-4-yl]-methyl-carbamoyl]-2,3-dihydro-1H-inden-1-yl]-2-(trifluoromethyl)-pyridine-3-carboxylic acid amide] here?
Answer: 102%

Question: With CN(C(=O)c1ccc2c(c1)C(NC(=O)c1ccccc1Cl)CC2)C1CCN(c2ccnc(S(C)(=O)=O)n2)CC1 (stereo not shown) [CC_H-609, 3-[(2-Chloro-benzoyl)amino]-N-methyl-N-[1-(2-methylsulfonyl-pyrimidin-4-yl)-piperidin-4-yl]-2,3-dihydro-1H-indene-5-carboxylic acid amide] as the compound, how does the inhibition at 10 µM read?
Answer: 102%

Question: With CN(C(=O)c1ccc2c(c1)C(NC(=O)c1cccnc1C(F)(F)F)CC2)C1CCN(c2ccnc(C3CC3)n2)CC1 (stereo not shown) [CC_H-610, N-[6-[[1-(2-Cyclopropyl-pyrimidin-4-yl)-piperidin-4-yl]-methyl-carbamoyl]-2,3-dihydro-1H-inden-1-yl]-2-(trifluoromethyl)-pyridine-3-carboxylic acid amide] as the compound, how does the inhibition at 10 µM read?
Answer: 101%

Question: For CN(C(=O)c1ccc2c(c1)C(NC(=O)c1ccccc1Cl)CC2)C1CCN(c2ccnc(N3CCCC3)n2)CC1 (stereo not shown) [CC_H-612, 3-[(2-Chloro-benzoyl)amino]-N-methyl-N-[1-(2-pyrrolidin-1-yl-pyrimidin-4-yl)-piperidin-4-yl]-2,3-dihydro-1H-indene-5-carboxylic acid amide], which inhibition at 10 µM is on record?
Answer: 101%

Question: Which inhibition at 10 µM does the source give for CN(C(=O)c1ccc2c(c1)C(NC(=O)CCC1CCCC1)CC2)C1CCN(c2ccnc(S(C)(=O)=O)n2)CC1 (stereo not shown) [CC_H-613, 3-(3-Cyclopentyl-propanoylamino)-N-methyl-N-[1-(2-methylsulfonyl-pyrimidin-4-yl)-piperidin-4-yl]-2,3-dihydro-1H-indene-5-carboxylic acid amide] here?
Answer: 90%

Question: Which inhibition at 10 µM does the source give for Cc1cc(N2CCC(N(C)C(=O)c3ccc4c(c3)C(NC(=O)c3ccccc3Cl)CC4)CC2)nc(N(C)C)n1 (stereo not shown) [CC_H-614, 3-[(2-Chloro-benzoyl)amino]-N-[1-(2-dimethylamino-6-methyl-pyrimidin-4-yl)-piperidin-4-yl]-N-methyl-2,3-dihydro-1H-indene-5-carboxylic acid amide] here?
Answer: 101%

Question: How did the inhibition at 10 µM turn out when CN(C)C(=O)c1cc(N2CCC(N(C)C(=O)c3ccc4c(c3)C(NC(=O)CCC3CCCC3)CC4)CC2)ccn1 (stereo not shown) [CC_H-615, 4-[4-[[3-(3-Cyclopentyl-propanoylamino)-2,3-dihydro-1H-inden-5-carbonyl]-methyl-amino]-piperidin-1-yl]-N,N-dimethyl-pyridine-2-carboxylic acid amide] was run?
Answer: 65%

Question: Which inhibition at 10 µM does the source give for CN(C(=O)c1ccc2c(c1)C(NC(=O)c1ccccc1Cl)CC2)C1CCN(c2ccnc(C(C)(C)C)n2)CC1 (stereo not shown) [CC_H-616, N-[1-(2-tert-Butyl-pyrimidin-4-yl)-piperidin-4-yl]-3-[(2-chloro-benzoyl)amino]-N-methyl-2,3-dihydro-1H-indene-5-carboxylic acid amide] here?
Answer: 101%
